The structures appear in SMILES notation.

Drawing on ChEMBL document CHEMBL3507680, “University of Dundee, Gates Library screen for HepG2 cell viability”, this text covers cytotoxicity for 99 compounds.

This data set can be described thus: Human HepG2 cell viability assay in 384 well format. It is filed as toxicity, cell-based. More on the design: dose 125 nL, time 70.5 hour; concentration not given beside the values. Particulars: HepG2 cells, read-out: Inhibition.
As to `COCCN1CCO[C@@H]2CN(C(=O)Cc3ccccc3)CC[C@@H]2C1`, the cytotoxicity at 70.5 h was -0.0515%.

In the case of `O=C(c1cc(Cl)c2c(c1)OCO2)N1CCCC(n2cncn2)C1` (centres undefined), the cytotoxicity at 70.5 h is -4.61%.

Regarding `Cc1ccnc(NCC2(N(C)C)CCOCC2)n1`, the cytotoxicity at 70.5 h was -2.1%.

Consider `Cc1cc(C)nc(N2CC=C[C@@H]2C(=O)NCc2ccc3c(c2)OCO3)n1`, for which the cytotoxicity at 70.5 h is -9.16%.

As for `Cc1cc(N2CCOC(C)(C(=O)N(C)C)C2)ncn1` (centres undefined), the cytotoxicity at 70.5 h was -6.62%.

For the compound `Clc1cccc(-c2cccc(N3CCC(NC4CCOCC4)CC3)c2)c1`, the cytotoxicity at 70.5 h was determined as 5.92%.

In the case of `Cc1nccc(C2CN(C(=O)c3cncnc3)C2)n1`, the cytotoxicity at 70.5 h is -13.8%.

`Cc1ccnc(NC(=O)c2ccc(F)c(S(=O)(=O)NC3CC3)c2)c1`: the cytotoxicity at 70.5 h was -7.61%.

For the compound `COCCN(Cc1ccccc1)C(=O)c1cnn(C)c1C`, the cytotoxicity at 70.5 h was -8.55%.

Turning to `CC(NC(=O)NCC1(c2ccc(Cl)cc2)CC1)c1nncn1C` (centres undefined), the cytotoxicity at 70.5 h was -2.86%.

Regarding `CCC(CNS(C)(=O)=O)Oc1ccccc1C` (centres undefined), the cytotoxicity at 70.5 h was -3.25%.

As for `CN1CCN(c2ccc(NCc3ccc(OC(F)(F)F)cc3)cn2)CC1`, the cytotoxicity at 70.5 h was -11.2%.

For the compound `Cc1noc(OCC(=O)N2CCCCC2C)n1` (centres undefined), the cytotoxicity at 70.5 h is -3.19%.

With `Cc1cc(NC(=O)N(C)C2CCN(c3ccccc3F)C2=O)n(C)n1` (centres undefined), the cytotoxicity at 70.5 h was -0.35%.

For `CC(C)c1nc(C2CCCN(c3ncccn3)C2)no1` (centres undefined), the cytotoxicity at 70.5 h is -10.3%.

Turning to `c1cncc(-c2noc(CCNc3ncnc4c3CCNCC4)n2)c1`, the cytotoxicity at 70.5 h was -7.7%.

Regarding `CC(C)OCCNC1(c2ccc(Cl)cc2)CCOCC1`, the cytotoxicity at 70.5 h is -0.58%.

For `CCOC(=O)[C@H]1CNC[C@H]1C(=O)OCC`, the cytotoxicity at 70.5 h was -2.7%.

For the compound `Cc1ccc(C(=O)N2CCN(c3ncnc4nc(N)ccc34)CC2)o1`, the cytotoxicity at 70.5 h was -7.65%.

Take `CCOC(=O)c1sc2ccsc2c1CNC(=O)C(C)(C)C#N`: the cytotoxicity at 70.5 h was -2.32%.

For `CC(NC(=O)c1ccc2c(c1)COC2)c1cccc(N2CCOC2=O)c1` (centres undefined), the cytotoxicity at 70.5 h was -0.257%.

On to `Cc1ccsc1C(=O)N1CCc2ncnc(NC(C)C)c2CC1`, for which the cytotoxicity at 70.5 h is -7.7%.

As to `NC(=O)CSc1ccccc1NC(=O)C1CCCCC1`, the cytotoxicity at 70.5 h worked out at 28.8%.

On to `Cc1cnn(CC2CCCN2C(=O)c2ccc3[nH]nnc3c2)c1` (centres undefined), for which the cytotoxicity at 70.5 h came to 17.5%.

Regarding `CCSCCNC(=O)c1ccc(S(=O)(=O)N2C[C@@H]3C[C@H]2CN3)cc1`, the cytotoxicity at 70.5 h is -4.95%.

Turning to `COc1c(F)cc(CN2CCCC3(CC2)CNC(=O)O3)cc1Cl` (centres undefined), the cytotoxicity at 70.5 h turned out to be 5.1%.

As to `CCCc1c(C2CCOC(C)(C)C2)nc(N)c(C#N)c1-c1cnn(C)c1` (centres undefined), the cytotoxicity at 70.5 h is -2.75%.

`Cc1cnc(N2C(=O)CSC2c2ccccc2)s1` (centres undefined): the cytotoxicity at 70.5 h is -9.48%.

Regarding `CN1C[C@@H]2CN(C(=O)NCc3ccccc3)CCC[C@]2(C(=O)O)C1`, the cytotoxicity at 70.5 h was -1.78%.

`Cc1ccccc1CC(C)(C)NC(=O)c1cccc(OCC(N)=O)c1`: the cytotoxicity at 70.5 h is -4.51%.

Turning to `O=C(NCc1cccnc1-n1cccn1)C1CC(=O)N(CC2CC2)C1` (centres undefined), the cytotoxicity at 70.5 h is -13.2%.

Take `Cc1cc(CN2CCC(c3ccnn3CCO)CC2)no1`: the cytotoxicity at 70.5 h was -15.5%.

Consider `CCc1cnc(N)nc1NCc1ccc(OC)cc1OC`, for which the cytotoxicity at 70.5 h was -0.135%.

With `Cc1ccc(OCCC(=O)N(C)CCC#N)cc1C`, the cytotoxicity at 70.5 h is -7.6%.

Take `COc1cc(OCC(=O)NCCc2ccccc2)cc(OC)c1OC`: the cytotoxicity at 70.5 h was -5.97%.

For the compound `COCC(=O)N[C@@H]1CN(Cc2c[nH]nc2-c2cccs2)C[C@H]1O`, the cytotoxicity at 70.5 h was -2.93%.

Consider `O=C(C1CCOC1)N1CCc2ncc(CNc3ccccn3)n2CC1` (centres undefined), for which the cytotoxicity at 70.5 h came to 0.605%.

In the case of `Cn1cnnc1S(=O)(=O)C1CCN(S(=O)(=O)C2CC2)CC1`, the cytotoxicity at 70.5 h is -1.29%.

Regarding `c1ccc(-c2nnc3sc(CCN4CCCC4)nn23)cc1`, the cytotoxicity at 70.5 h is -5.25%.

For `O=C(Nc1cc(CSCCO)ccn1)c1cc2ccccc2[nH]1`, the cytotoxicity at 70.5 h was 13.4%.

Take `Cc1ccc2[nH]c(CN(C)c3cc(CN)nc(C)n3)nc2c1`: the cytotoxicity at 70.5 h was 0.934%.

On to `Cc1cc(CN2CCO[C@H]3[C@H](OCc4csc(C)n4)CC[C@@H]32)no1`, for which the cytotoxicity at 70.5 h worked out at 2.95%.

`CN1CCCN(c2ccc(F)cc2CNC(=O)c2ccsc2)CC1`: the cytotoxicity at 70.5 h is -4.69%.

Regarding `CN(C)Cc1nnc2n1CCN(Cc1cccnc1)C2`, the cytotoxicity at 70.5 h is -2.36%.

As to `CN(Cc1nc(C2CC2)no1)C1CCCN(c2cccnn2)C1` (centres undefined), the cytotoxicity at 70.5 h is -19.7%.

For `COC(=O)NCc1cc2n(n1)CCCN(C(C)=O)C2`, the cytotoxicity at 70.5 h is -7.46%.

On to `CCN1CCC(CC(=O)NCCc2nc(N)cc(O)n2)CC1`, for which the cytotoxicity at 70.5 h is -2.8%.

As to `CN[C@H]1CC[C@]2(CC1)CNC(=O)c1cc(C)ccc1O2`, the cytotoxicity at 70.5 h is -8.44%.

Consider `CC(=O)Nc1ccc(CC(=O)N2CC(S(=O)(=O)C3CCCCC3)C2)cc1`, for which the cytotoxicity at 70.5 h is -3.63%.

As for `Cc1cccc2[nH]c(C3CCCN3Cc3ccc(CO)o3)nc12` (centres undefined), the cytotoxicity at 70.5 h is -9.7%.

Regarding `COCCCC(=O)NS(=O)(=O)c1ccc2c(c1)OCCCO2`, the cytotoxicity at 70.5 h is -8.6%.

As to `Cc1nccc(-c2cccc(-c3ccn(CC4CCNC4)n3)c2)n1` (centres undefined), the cytotoxicity at 70.5 h was -3.45%.

In the case of `CCCn1nc2c(cc1=O)CN(C(C)C(=O)Nc1nccs1)CC2` (centres undefined), the cytotoxicity at 70.5 h is 4.51%.

Consider `OCC1(Cc2ccc(Cl)cc2)CCN(Cc2ccccc2O)CC1`, for which the cytotoxicity at 70.5 h is -4.64%.

Consider `Cc1ccn(Cc2nc(C(C)OCC(C)C)no2)c(=O)c1` (centres undefined), for which the cytotoxicity at 70.5 h stood at 3.64%.

For the compound `COCc1ccccc1CNC(=O)CNc1ccccc1C(C)=O`, the cytotoxicity at 70.5 h came out at 2.64%.

In the case of `Cc1nn(C)c(Cl)c1C1CCCN1C(=O)c1ccnn1C` (centres undefined), the cytotoxicity at 70.5 h was -14.4%.

For the compound `CC(CC(=O)c1ccccc1)NC(=O)c1ccon1` (centres undefined), the cytotoxicity at 70.5 h is -5.06%.

As for `CN(C)c1cccc(CNC(=O)Nc2cc(C#N)ccc2Cl)n1`, the cytotoxicity at 70.5 h was -4.82%.

In the case of `Cn1ccnc1C(O)(CCNCc1ccco1)C(F)(F)F` (centres undefined), the cytotoxicity at 70.5 h worked out at 5.83%.

In the case of `O=C(CCc1cn[nH]c1)N1C[C@H](CO)C[C@H](CN2CCOCC2)C1`, the cytotoxicity at 70.5 h is -8.81%.

Regarding `COCCNC(=O)Cn1cc(OCc2ccccc2)c(=O)cc1CO`, the cytotoxicity at 70.5 h is -15.3%.

Take `CCCC1C=CCN1C(=O)c1cc(COc2ccc3c(c2)OCO3)[nH]n1` (centres undefined): the cytotoxicity at 70.5 h was -11%.

Regarding `CCOc1ncccc1CNC(=O)NCCNC(=O)c1ccco1`, the cytotoxicity at 70.5 h is -4.58%.

Consider `O[C@@H]1C[C@@](CNCc2cccc(Cl)c2)(COc2cccnc2)C[C@@H]1O`, for which the cytotoxicity at 70.5 h was -2.94%.

As to `CC(C)(O)CN1CCN(C(=O)c2cnn(-c3ccccc3F)c2)CC1`, the cytotoxicity at 70.5 h was -4.5%.

As for `COCCO[C@H]1CCN(C(=O)NC2CC2)[C@H]1Cc1cnn(C)c1`, the cytotoxicity at 70.5 h is -123%.

Turning to `Cc1nc2sccn2c1C(=O)N1CCn2nc(C(=O)NC3CC3)cc2C1`, the cytotoxicity at 70.5 h is -11.6%.

As for `Cc1ccc(C(=O)NCCCN2CCOCC2)c(Cl)c1`, the cytotoxicity at 70.5 h was -6.07%.

As to `Cc1ccc(CN2CC[C@@H]3[C@H]2CCC(=O)N3Cc2ccncc2)s1`, the cytotoxicity at 70.5 h stood at 21%.

Turning to `CN(C)C(=O)CN1CCC2(CCN(Cc3nccs3)CC2)C1=O`, the cytotoxicity at 70.5 h stood at 16.1%.

Turning to `N#Cc1ccc(S(=O)(=O)NC(=O)C2CC(c3ccccc3)=NO2)cc1` (centres undefined), the cytotoxicity at 70.5 h is -12.1%.

Regarding `CC(Cc1ccco1)NC(=O)Nc1ccc(N(C)C)nc1` (centres undefined), the cytotoxicity at 70.5 h was -7.91%.

Turning to `CNC(=O)c1cc(C)n(-c2cccc(OC)c2)c1C`, the cytotoxicity at 70.5 h is 11%.

Regarding `Cn1ccnc1CN1CCN(CC(=O)NCC(F)(F)F)CC1`, the cytotoxicity at 70.5 h was -10.6%.

For `CCOCc1ccccc1NC(=O)NC1CCN(c2ncccn2)CC1`, the cytotoxicity at 70.5 h was -6.67%.

Take `CNc1ccnc(NCC(=O)Nc2cc(C)ccc2OC)n1`: the cytotoxicity at 70.5 h is -5.67%.

As to `OCC1CCCN1c1cc(NCc2ccccn2)ncn1` (centres undefined), the cytotoxicity at 70.5 h worked out at 0.0157%.

Regarding `CCC(O)CN(c1ccccc1)S(=O)(=O)c1cnc(C)s1` (centres undefined), the cytotoxicity at 70.5 h stood at 18.5%.

Consider `Cn1nccc1NCc1cc2cc(F)ccc2o1`, for which the cytotoxicity at 70.5 h stood at 23.2%.

`CN(C)S(=O)(=O)NCc1nc(-c2cccc(F)c2)c(-c2ccccn2)[nH]1`: the cytotoxicity at 70.5 h is -0.435%.

With `Cc1nc(C)c(C(=O)N2CCCC2c2nnc3n2CCCCC3)s1` (centres undefined), the cytotoxicity at 70.5 h is -8.07%.

Consider `Cc1csc(CN2CC[C@H]3C[C@H](c4nc(C)no4)O[C@@H]3C2)n1`, for which the cytotoxicity at 70.5 h was -10.4%.

In the case of `CNC(=O)CC1CCN(Cc2nc(-c3ccc(SC)cc3)oc2C)CC1`, the cytotoxicity at 70.5 h was -6.83%.

For the compound `Cn1cc(-c2csc(N3CCOCC3)n2)cn1`, the cytotoxicity at 70.5 h is -3.47%.

`CC(CNC(=O)c1cc(-n2cccn2)ccn1)Cn1ccnc1` (centres undefined): the cytotoxicity at 70.5 h was -0.0471%.

Regarding `CCN(Cc1cc(F)c(OC)c(Cl)c1)Cc1nc(COC)no1`, the cytotoxicity at 70.5 h is 12.1%.

As for `CNc1nccc(-c2cnc3sc(C)c(C)n3c2=O)n1`, the cytotoxicity at 70.5 h is 0.0839%.

With `CC(C)N1C[C@@H](F)[C@@H](OCc2nc3ncccc3[nH]2)C1`, the cytotoxicity at 70.5 h is -0.523%.

As to `COc1ccc(C)cc1CN(C)Cc1nc2c(cnn2C)c(=O)[nH]1`, the cytotoxicity at 70.5 h was -7.21%.

In the case of `CO[C@H]1CN(Cc2cccc(C#N)c2)[C@@H]2COC[C@H]12`, the cytotoxicity at 70.5 h was -0.497%.

With `O=C(c1ccc(N2CCCC2)nn1)N1CCc2ccccc21`, the cytotoxicity at 70.5 h is 0.119%.

`Cc1nc(CN(C)C2CCN(Cc3c(C)noc3C)C2)no1` (centres undefined): the cytotoxicity at 70.5 h is -8.91%.

In the case of `CCn1cnnc1CN(C)Cc1c[nH]nc1-c1ccc(F)cc1`, the cytotoxicity at 70.5 h is -1.22%.

For `CC(C)c1ncc2c(n1)CN(Cc1ccc3c(c1)OCCO3)CC2`, the cytotoxicity at 70.5 h was found to be 12.6%.

With `CN(C)C1(CNC(=O)C2CCCN2Cc2ccc(F)cc2)CCOCC1` (centres undefined), the cytotoxicity at 70.5 h came out at 6.73%.

Turning to `Cc1cc2[nH]c(CN3CCOC(C(F)(F)F)C3)cc(=O)n2n1` (centres undefined), the cytotoxicity at 70.5 h is 17.8%.

Consider `Cn1nccc1-c1ncc2c(c1C(=O)O)CCN(Cc1cccnc1)C2`, for which the cytotoxicity at 70.5 h is -2.63%.

As to `Cc1cc(C)c(CNC(=O)N2CCCC2c2ccccc2)c(=O)[nH]1` (centres undefined), the cytotoxicity at 70.5 h was determined as 2.02%.
